Measured values taken from patent publication US8735149B2, “Motor neurons developed from stem cells” (Hadasit Medical Research Services & Development Limited, priority 2008, dated 2014).

What was measured:
Format in all cases: cell-based, human
[1] = test system: hESC-derived neural progenitors with caudal and ventral specification; assay: Terminal motor neuron differentiation of plated spheres in the presence of DAPT (HB9, CHAT immunostaining)
Protocol: (§1) The spheres were then further cultured in the same neurobasal medium supplemented with 2 mM L-glutamine, 50 units/ml penicillin, 50 μg/ml streptomycin, 1% non-essential amino-acids, 1% N2 (all from Invitrogen), 1 μM db-cAMP and 10 ng/ml of BDNF, GDNF and IGF-I (all from Peprotech). This medium was designated as motor neuron medium (MNM). The clusters could be cultured in suspension in this medium for prolonged periods (5 months). At various time points along this period the cells were plated on 10 μg/ml Poly-D-Lysine (Sigma) and 5 μg/ml laminin (Sigma) for terminal differentiation in the presence or absence of the γ-secretase inhibitor [N-(3,5-Difluorophenacetyl)-L-alanyl]-S-phenylglycine t-butyl ester (DAPT; 1 μM, Sigma).
(§2) The following primary antibodies were used: polyclonal rabbit anti Isl1 (1:750, Abeam), mouse anti HB9 (1:50, DSHB), polyclonal goat anti CHAT (1:200, R&D), and goat anti olig2 (1:75, R&D).
(§3) The following secondary antibodies: goat anti-rabbit conjugated to Cy-3 (1:1000, Jackson), goat anti-mouse conjugated to Cy-3 (1:500, Jackson), donkey anti goat conjugated to rhodamin (1:300, Jackson), Texas red or Alexa 488-conjugated goat anti-mouse IgM (1:100, Jackson), goat anti-rabbit IgG (1:100, Molecular Probes), goat anti-mouse IgG (1:100, Molecular Probes) or donkey anti-goat IgG (1:250, Jackson) were used as secondary antibodies, where appropriate.
To further enhance the motor neuron differentiation, caudalization and ventralization were followed by blocking Notch signaling with the γ-secretase inhibitor DAPT. After 2-3 weeks of maturation in MNM, the spheres were plated on laminin and terminally differentiated in the presence of DAPT for 7-10 days.

[2] = test system: hESC-derived neural precursors; assay: RT-PCR of Olig2, Ngn2 and HB9 transcripts after early neural induction and 2-3 weeks treatment
Protocol: (§4) To develop spheres enriched for neural precursors, hESC colonies were removed intact from the feeders, 6 days after passage, with collagenase IV. They were cultured in low adherent culture dishes (HydroCell) in DMEM/F12 (1:1) basal medium (Invitrogen), supplemented with 2% B27, 2 mM glutamine, 50 units/ml penicillin, 50 μg/ml streptomycin (all from Invitrogen), and 20 ng/ml rh-FGF-2 (Peprotech). In some experiments the medium was also supplemented with noggin 600-700 ng/ml (both from R&D) for 14-16 days.
The medium was further supplemented with 1 μM retinoic acid (“RA”; Sigma) or 0.5 μM purmorphamine (“Pur”; a hedgehog agonist; Merck), or combination of Pur and RA, for 3 weeks.
Total RNA was extracted from free-floating clusters after 2 and 3 weeks of treatment with RA, Pur or both. Total RNA was isolated using TRI-reagent (Sigma) followed by treatment with RNase-free DNase (Ambion). cDNA synthesis was carried out using Moloney murine leukemia virus (M-MLV) reverse transcriptase and random primers, according to the manufacturers' instructions (Promega). To analyze relative expression of different mRNAs, the amount of cDNA was normalized based on the signal from GAPDH mRNA. PCR was carried out using standard protocols with Taq DNA Polymerase (Promega). Amplification conditions were as follows: denaturation at 94° C. for 30 seconds, annealing at 55° C. for 30 seconds, and extension at 72° C. for 45 seconds. The number of cycles varied between 30 and 40, depending on particular mRNA abundance. Primer sequences (forward and reverse 5′-3′) were as shown in Table 1 (sequence identification number (SEQ ID NO.) according to the Sequence Listing is also provided):
Following this initial induction of early neural differentiation, the role of purmorphamine (Pur) and retinoic acid (RA) in further specification towards a caudal and ventral fate was examined. The neural precursors were further cultured 2-3 weeks with Pur, RA, or the combination of RA & Pur as well as with FGF2 as a control. Caudalization and ventralization were studied by analyzing the expression of Olig-2, Ngn2 and HB9 transcripts (FIGS. 2A, 2B and 2C). […] Without being bound by theory, induction of expression of these transcription factors by RA after 3 weeks (lane 6 in FIGS. 2A and 2C) may be related to RA-mediated induction of endogenous SHH gene expression.

[3] = test system: hESC-derived neural precursors; assay: Immunostaining for HB9 after 1 week RA, 3 weeks treatment and 4-6 weeks maturation in MNM; conditions: RA 1 week, then 3 weeks treatment, then maturation 4-6 weeks in MNM
Protocol: (§5) Alternatively, the spheres were cultured in the same medium supplemented with 1 μM RA (Sigma) for 1 week. Followed by further culturing the spheres in neurobasal medium (Invitrogen) supplemented with 2 mM L-glutamine (Invitrogen), 50 units/ml penicillin (Invitrogen), 50 μg/ml streptomycin (Invitrogen), 1% non-essential amino-acids (Invitrogen), N2 (Invitrogen), 1 μM db-cAMP (Sigma) and 1 μM RA (Sigma), or 0.5 μM Pur (Merck), or combination of RA and Pur, for 2-3 weeks.
as §1
The following primary antibodies were used: polyclonal rabbit anti Isl1 (1:750, Abeam), mouse anti HB9 (1:50, DSHB), polyclonal goat anti CHAT (1:200, R&D), and goat anti olig2 (1:75, R&D). […]

[4] = test system: hESC-derived neural spheres; assay: Olig-2, HB9 and CHAT expression after caudalization, ventralization and maturation in MNM
Protocol: as §5, §1, §2, §3
In a similar set of experiments, after initial early neural induction in the presence of FGF2, the spheres were induced to take a caudal fate by 7 days treatment with RA. […]

[5] = test system: hESC-derived neural precursors; assay: Immunostaining for Olig-2 and Isl-1 after early neural induction and 3 weeks treatment; conditions: treatment for 3 weeks
Protocol: To develop spheres enriched for neural precursors, hESC colonies were removed intact from the feeders, 6 days after passage, with collagenase IV. They were cultured in low adherent culture dishes (HydroCell) in DMEM/F12 (1:1) basal medium (Invitrogen), supplemented with 2% B27, 2 mM glutamine, 50 units/ml penicillin, 50 μg/ml streptomycin (all from Invitrogen), and 20 ng/ml rh-FGF-2 (Peprotech). In some experiments the medium was also supplemented with noggin 600-700 ng/ml (both from R&D) for 14-16 days. […] The medium was further supplemented with 1 μM retinoic acid (“RA”; Sigma) or 0.5 μM purmorphamine (“Pur”; a hedgehog agonist; Merck), or combination of Pur and RA, for 3 weeks. The following primary antibodies were used: polyclonal rabbit anti Isl1 (1:750, Abeam), mouse anti HB9 (1:50, DSHB), polyclonal goat anti CHAT (1:200, R&D), and goat anti olig2 (1:75, R&D). The following secondary antibodies: goat anti-rabbit conjugated to Cy-3 (1:1000, Jackson), goat anti-mouse conjugated to Cy-3 (1:500, Jackson), donkey anti goat conjugated to rhodamin (1:300, Jackson), Texas red or Alexa 488-conjugated goat anti-mouse IgM (1:100, Jackson), goat anti-rabbit IgG (1:100, Molecular Probes), goat anti-mouse IgG (1:100, Molecular Probes) or donkey anti-goat IgG (1:250, Jackson) were used as secondary antibodies, where appropriate.

[6] = test system: hESC clusters; assay: Early neural induction of hESC clusters (PSA-NCAM expression); conditions: chemically defined medium with FGF2 with or without noggin, two weeks
Protocol: as §4
To induce the differentiation of hESCs towards motor neurons, hESC clusters were initially cultured in chemically defined medium supplemented with FGF2 with or without noggin for two weeks. At the end of this culture period the clusters acquired round morphology typical of neural spheres.

[7] = DAPT 1 μM for 7-10 days after 2-3 weeks maturation in MNM, plated on laminin
[8] = RA 7 days, Pur with or without RA 2-3 weeks, 4 weeks maturation in MNM, plated on laminin, no DAPT

Row | Molecule | increase of percentage of HB9+ cells [1, 7] | percentage of HB9+ cells [1, 7] | neurite outgrowth and branching from CHAT expressing cells ([1]; DAPT during terminal differentiation) | expression of HB9 transcripts ([2]; after 2 weeks of treatment) | expression of Olig-2 transcripts ([2]; after 2 weeks of treatment) | expression of HB9 transcripts ([2]; after 3 weeks of treatment) | expression of Olig-2 transcripts ([2]; after 3 weeks of treatment) | cells expressing HB9 protein [3] | cells within the spheres expressing Olig-2 ([4]; 7 days RA, then Pur in the presence or absence of RA for 2-3 weeks) | cells expressing CHAT [4, 8] | cells expressing HB9 [4, 8] | expression of Ngn2 transcripts ([2]; after 2 weeks of treatment) | expression of Ngn2 transcripts ([2]; after 3 weeks of treatment) | cells expressing Isl-1 [5] | cells expressing Olig-2 [5] | neural precursor cells expressing PSA-NCAM within the clusters [6]
1 | C[C@H](NC(=O)Cc1cc(F)cc(F)c1)C(=O)N[C@H](C(=O)OC(C)(C)C)c1ccccc1 [DAPT, [N-(3,5-Difluorophenacetyl)-L-alanyl]-S-phenylglycine t-butyl ester] | 1.5-2 folds | 40-70 % of total cells | significantly augmented | – | – | – | – | – | – | – | – | – | – | – | – | –
2 | c1ccc2c(Oc3nc(Nc4ccc(N5CCOCC5)cc4)c4ncn(C5CCCCC5)c4n3)cccc2c1 [Pur, purmorphamine] | – | – | – | induced the expression | induced the expression | induced the expression | induced the expression | 66 % of total cells | 23-54 % of the cells | 20-50 % of the cells | 20-50 % of the cells | – | – | – | – | –
3 | FGF2: basic fibroblast growth factor, used for early neural induction and as control treatment | – | – | – | did not induce the expression | did not induce the expression | did not induce the expression | did not induce the expression | not expressed | – | – | – | did not induce the expression | did not induce the expression | not expressed | did not induce the expression | highly enriched
